Results from article PMC8428848, “Ancient role of sulfakinin/cholecystokinin-type signalling in inhibitory regulation of feeding processes revealed in an echinoderm” (eLife, 2021).
Like-named read-outs stand apart in the source and are kept apart here. Square brackets hold non-standard residues; d marks the D form. Ends that are not written are not given here. * marks the point of attachment. pGlu = O=C1CC[C@@H](C(=O)O)N1; SO3H = O=S(=O)(O)*

Key:
ArSK/CCKR = target: T1, ArSK/CCKR (Asterias rubens, UniProt A0A8F2ZGB9); test: Aequorin bioluminescence receptor assay in CHO-K1 cells (G5A) co-transfected with ArSK/CCKR and human Gα16; format: cell-based; details: 10^–12 to 10^–4 M; at least three independent experiments in triplicate
T1 sequence (A0A8F2ZGB9 1-434): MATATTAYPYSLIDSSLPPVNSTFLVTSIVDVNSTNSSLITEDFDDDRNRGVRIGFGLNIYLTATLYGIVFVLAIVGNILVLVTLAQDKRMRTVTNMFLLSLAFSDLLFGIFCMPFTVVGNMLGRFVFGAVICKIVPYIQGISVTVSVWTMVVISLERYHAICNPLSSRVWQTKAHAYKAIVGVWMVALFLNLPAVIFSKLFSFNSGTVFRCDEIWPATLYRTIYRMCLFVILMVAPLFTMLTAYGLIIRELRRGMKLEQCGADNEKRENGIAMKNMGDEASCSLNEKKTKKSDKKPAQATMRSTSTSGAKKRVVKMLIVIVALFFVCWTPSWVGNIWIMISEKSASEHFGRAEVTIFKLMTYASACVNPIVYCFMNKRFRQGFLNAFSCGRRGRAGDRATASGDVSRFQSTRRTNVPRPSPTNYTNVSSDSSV
Source text: To enable testing of ArSK/CCK1 and ArSK/CCK2 as candidate ligands for ArSK/CCKR, a full-length cDNA encoding ArSK/CCKR was synthesized by GenScript (Piscataway, NJ) and cloned into pcDNA 3.1+ vector (Invitrogen, Thermo Fisher Scientific, Waltham, MA). A partial Kozak translation initiation sequence (CACC) was introduced upstream to the start codon (ATG). CHO-K1 cells stably expressing the mitochondrial targeted calcium-sensitive bioluminescent reporter GFP-aequorin fusion protein (G5A) ([Baubet et al., 2000]) were used as a heterologous expression system for ArSK/CCKR. These cells have been used previously for neuropeptide receptor deorphanisation ([Bauknecht and Jékely, 2015]) and were generously supplied to us by Dr Gáspár Jékely (University of Exeter). The cell line was generated using the CHO-K1 cell line from Sigma-Aldrich (85051005; RRID: CVCL_0214), which is certified by the European Collection of Authenticated Cell Cultures (ECACC), and expression of the GFP-aequorin fusion protein (G5A) in the cell line was determined by functionality in displaying calcium-activated luminescence. […] Cells were cultured, co-transfected with the pcDNA 3.1+ vector containing the ArSK/CCKR cDNA sequence and plasmids encoding the promiscuous human G-protein Gα16. Then bioluminescence-based receptor assays were performed, as described previously for A. rubens luqin-type receptors ([Yañez-Guerra et al., 2018]).
[…] Concentration-response data were determined as a percentage of the highest response for each peptide (100% activation). EC50 values were calculated from concentration-response curves based on four to six independent transfections and averaging two to three replicates in each transfection using Prism 6.0 (RRID:SCR_002798; GraphPad software, La Jolla, CA). Cells transfected with an empty vector were used for control experiments.

Asterias rubens [1] = details: cited from earlier work
Source text: (§1) Extra-oral feeding in starfish requires relaxation of muscle in the wall of the cardiac stomach and in intrinsic and extrinsic retractor strands to enable stomach eversion. Then when external digestion and ingestion of prey tissue is completed, contraction of the musculature enables cardiac stomach retraction ([Anderson, 1954]). Previous studies have identified neuropep ...

[2] = tested on: cardiac stomach preparations; details: cited from earlier work
Source text: as §1

[3] = tested on: affinity-purified rabbit antibodies to ArSK/CCK1; test: ELISA specificity test of affinity-purified antibodies to ArSK/CCK1; format: binding; details: TEA fraction diluted 1:10; peptide 0.1 nmol (100 µl of 1 µM); mean of six replicates
Source text: To generate antibodies to ArSK/CCK1, an N-terminally truncated peptide analog of ArSK/CCK1 with the addition of a reactive N-terminal lysine residue was synthesized (KY(SO3H)GHGLFW-NH2 , Peptide Protein Research Ltd, Fareham, UK). To generate antibodies to ArSK/CCKR, a peptide corresponding to the C-terminal 15 amino acids of ArSK/CCK-R with addition of an N-terminal reactive lysine residue was synthesized (KPSPTNYTNVSSDSSV, Peptide Protein Research Ltd, Fareham, UK). These peptides were conjugated to porcine thyroglobulin (Sigma-Aldrich, Gillingham, UK) as a carrier protein using 5% glutaraldehyde (Sigma-Aldrich, Gillingham, UK) in phosphate buffer (0.1 M; pH 7.2) and the conjugate was used for immunisation of a rabbit for ArSK/CCK1 (70-day protocol; Charles River Biologics, Romans, France) and a guinea pig for ArSK/CCKR (56-day protocol; Charles River Biologics, Romans, France). The antigens were emulsified in Freund’s complete adjuvant for primary immunisations (~100 nmol antigen peptide) and in Freund’s incomplete adjuvant for three booster immunisations (~50 nmol antigen peptide). The presence of antibodies to the antigen peptides in post-immunisation serum samples was assessed using an enzyme-linked immunosorbent assay (ELISA), in comparison with pre-immune serum (Figure 5—figure supplement 1a; Figure 6—figure supplement 1). Antibodies to the antigen peptides were purified from the final bleed antiserum by affinity purification using the AminoLink Plus Immobilization Kit (Thermo Fisher Scientific, Waltham, MA), with bound antibodies eluted using glycine elution buffer (6.3 ml of 100 mM glycine [VWR Chemicals, Leicestershire, UK] and 0.7 ml of Tris [1 M, pH = 7.0]) and […] (TEA) elution buffer (6.3 ml of TEA [Sigma-Aldrich, Gillingham, UK] and 0.7 ml of Tris [1 M, pH = 7.0]). Eluates were dialyzed and sodium azide (0.1%) was added for long-term storage of the affinity-purified antibodies at 4°C. The specificity of ArSK/CCK1 antibodies eluted with TEA, which were subsequently used for immunohistochemistry (see below), was assessed by ELISA by testing them at a concentration of 1:10 with the following synthetic peptides (100 µl at a concentration of 1 µM dissolved in carbonate/bicarbonate buffer [25 mM sodium carbonate, 25 mM sodium bicarbonate, pH = 9.8]): ArSK/CCK1, ArSK/CCK2, ArSK/CCK2(ns) and the A. rubens luqin-type peptide ArLQ (Figure 5—figure supplement 1b). The rabbit antiserum to ArSK/CCK1 has been assigned the RRID:AB_2877176 and the guinea pig antiserum to ArSK/CCKR has been assigned the RRID:AB_2891354.

Asterias rubens [4] = details: injected in vivo; ref Tinoco et al., 2018; cited from earlier work
Source text: The in vivo effect of SK/CCK-type neuropeptides in triggering cardiac stomach retraction is indicative of a role in physiological mechanisms that control termination of feeding behaviour in starfish. […] Accordingly, here we observed that starfish injected with SK/CCK-type neuropeptides took longer to enclose prey compared to control animals injected with water. Further ...

[5] = target: Asterias rubens SK/CCK-type receptor (ArSK/CCKR) (Asterias rubens)

SGPYSFNSGLTF-NH2 [S2, SALMFamide neuropeptide S2 (…-NH2)]
activation of ArSK/CCKR (luminescence) (ArSK/CCKR): inactive
effect on cardiac stomach when injected in vivo (Asterias rubens [1]; ref Melarange et al., 1999): trigger cardiac stomach eversion
effect on cardiac stomach in vitro ([2]; ref Melarange et al., 1999): cause relaxation

GGGVPHVFQSGGIF-NH2 [ArTK2, A. rubens tachykinin-like peptide ([…]-NH2), reference compound]
activation of ArSK/CCKR (luminescence) (ArSK/CCKR): inactive

EEKTRFPKFMRW-NH2 [ArLQ, A. rubens luqin-type neuropeptide …-NH2, reference compound]
ELISA reactivity (optical density) with antibodies to ArSK/CCK1 [3]: do not cross-react

NGFFYamide
effect on everted cardiac stomach when injected in vivo (Asterias rubens [1]; ref Semmens et al., 2013): retraction of the everted stomach
effect on cardiac stomach in vitro ([2]; ref Semmens et al., 2013): triggers contraction
onset of feeding on prey (mussels) (Asterias rubens [4]): significant delay in the onset of feeding

asterotocin
effect on cardiac stomach when injected in vivo (Asterias rubens [1]; ref Odekunle et al., 2019): trigger cardiac stomach eversion
effect on cardiac stomach in vitro ([2]; ref Odekunle et al., 2019): cause relaxation

B1: ArSK/CCK1 (Asterias rubens sulfakinin/cholecystokinin-type neuropeptide 1), pQSKVDDY(SO3H)GHGLFW-NH2 (peptide)
peptide: [pGlu]SKVDDY(SO3H)GHGLFW-NH2
SMILES: CC(C)C[C@H](NC(=O)CNC(=O)[C@H](Cc1c[nH]cn1)NC(=O)CNC(=O)[C@H](Cc1ccc(OS(=O)(=O)O)cc1)NC(=O)[C@H](CC(=O)O)NC(=O)[C@H](CC(=O)O)NC(=O)[C@@H](NC(=O)[C@H](CCCCN)NC(=O)[C@H](CO)NC(=O)[C@@H]1CCC(=O)N1)C(C)C)C(=O)N[C@@H](Cc1ccccc1)C(=O)N[C@@H](Cc1c[nH]c2ccccc12)C(N)=O
EC50 of concentration-dependent luminescence (calcium, GFP-aequorin G5A) in CHO-K1 cells transfected with ArSK/CCKR and human Gα16 [5]: 0.25 nM

B2: ArSK/CCK2 (Asterias rubens sulfakinin/cholecystokinin-type neuropeptide 2), GGDDQY(SO3H)GFGLFF-NH2 (peptide)
peptide: GGDDQY(SO3H)GFGLFF-NH2
modifications: N-terminus assumed
SMILES: CC(C)C[C@H](NC(=O)CNC(=O)[C@H](Cc1ccccc1)NC(=O)CNC(=O)[C@H](Cc1ccc(OS(=O)(=O)O)cc1)NC(=O)[C@H](CCC(N)=O)NC(=O)[C@H](CC(=O)O)NC(=O)[C@H](CC(=O)O)NC(=O)CNC(=O)CN)C(=O)N[C@@H](Cc1ccccc1)C(=O)N[C@@H](Cc1ccccc1)C(N)=O
EC50 of concentration-dependent luminescence (calcium, GFP-aequorin G5A) in CHO-K1 cells transfected with ArSK/CCKR and human Gα16 [5]: 0.12 nM

GGDDQYGFGLFF-NH2 [ArSK/CCK2(ns), non-sulphated form of ArSK/CCK2, …-NH2]
EC50 of concentration-dependent luminescence (calcium, GFP-aequorin G5A) in CHO-K1 cells transfected with ArSK/CCKR and human Gα16 [5]: 48000 nM
